Test system: C57BL/6J mice
Assay: Oral glucose tolerance test
Assay type: in vivo
Conditions: male C57BL/6J mice, fasted overnight, oral gavage 10 mg/kg, glucose 3 g/kg orally 30 minutes after compound, area under the curve of blood glucose level relative to control group
Procedure: Commercially available mice (C57BL/6J mice; male; 8 to 12 weeks old when used; distributed by Charles River Laboratories Japan, Inc.) were used.
After acclimatization with freely feeding (FR-2, Funabashi Farm Co., Ltd.) for one week or more, the mice were fasted overnight and then used for the test. A 0.5% methylcellulose (Wako Pure Chemical Industries, Ltd.) solution (0.5% MC) containing a test compound at a concentration of 1 mg/ml and a mixed solution (PG:Tween) of propylene glycol (80 v/v %, Nacalai Tesque, Inc.) and Tween 80 (20 v/v %, Nacalai Tesque, Inc.) containing a test compound at a concentration of 2 mg/ml were prepared for administration to the mice. The prepared solution was administered by oral gavage to four or five mice in each group at a dose of 10 mg/kg as the test compound. For a control group, a 0.5% methylcellulose solution (dose: 10 ml/kg) or a mixed solution of propylene glycol and Tween 80 (dose: 5 ml/kg) was orally administered to mice. An oral glucose tolerance test was carried out by administering a glucose solution (Otsuka Glucose Solution 50%; Otsuka Pharmaceutical Factory, Inc.) orally at a dose of 3 g/kg to the mice 30 minutes after administration of the test compound.
Blood was collected from the tail vein of each mouse immediately before administration of the test compound (T0), […] after administration of the test compound (T1), and 30 minutes (T2) and 90 minutes (T3) after oral glucose loading. The blood glucose level was measured using a blood glucose level measuring apparatus (ACCU-CHEK Aviva; Roche Diagnostics, K.K.). The blood glucose level T1 was analyzed as a value obtained 30 minutes after administration of the compound and immediately before glucose loading. According to the following formula, the area under the curve of blood glucose level was calculated, and thereafter, the blood glucose lowering rate (%) was calculated as a value relative to the control group. The area under the curve of blood glucose level=[(blood glucose level T0+blood glucose level T1)×30]÷2+[(blood glucose level T1+blood glucose level T2)×30]÷2+[(blood glucose level T2+blood glucose level T3)×60]÷2 Blood glucose lowering rate(%)=[1−(the area under the curve of blood glucose level for the test compound group/the area under the curve of blood glucose level for the control group)]×100

Structure (SMILES) | Blood glucose lowering rate (%) (solvent 0.5% MC) | Blood glucose lowering rate (%) (solvent PG:Tween)
COc1ccc(-c2ccc(C)c(C(=O)NS(C)(=O)=O)n2)cc1C1C2=C(CC(C)(C)CC2=O)OC2=C1C(=O)CC(C)(C)C2 [Example 31, 6-[4-Methoxy-3-(3,3,6,6-tetramethyl-1,8-dioxo-2,3,4,5,6,7,8,9-octahydro-1H-xanthen-9-yl)phenyl]-3-methyl-N-(methylsulfonyl)pyridine-2-carboxamide] | 42 | 
COc1ccc(-c2cc(C)cc(C(=O)O)n2)c(C)c1C1C2=C(CC(C)(C)CC2=O)OC2=C1C(=O)CC(C)(C)C2 [Example 32, 6-[4-Methoxy-2-methyl-3-(3,3,6,6-tetramethyl-1,8-dioxo-2,3,4,5,6,7,8,9-octahydro-1H-xanthen-9-yl)phenyl]-4-methylpyridine-2-carboxylic acid] | 59 | 
COc1ccc(-c2nc(C(=O)O)ccc2C)c(C)c1C1C2=C(CC(C)(C)CC2=O)OC2=C1C(=O)CC(C)(C)C2 [Example 34, 6-[4-Methoxy-2-methyl-3-(3,3,6,6-tetramethyl-1,8-dioxo-2,3,4,5,6,7,8,9-octahydro-1H-xanthen-9-yl)phenyl]-5-methylpyridine-2-carboxylic acid] | 58 | 
COc1ccc(-c2ccc(C)c(C(=O)NS(C)(=O)=O)n2)cc1C1C2=C(CC(C)(C)CC2=O)OC2=C1C(=O)CC(C)(C)C2.[K] [Example 35, 6-[4-Methoxy-3-(3,3,6,6-tetramethyl-1,8-dioxo-2,3,4,5,6,7,8,9-octahydro-1H-xanthen-9-yl)phenyl]-3-methyl-N-(methylsulfonyl)pyridine-2-carboxamide potassium salt] | 52 | 
COc1ccc(-c2cc(C)cc(C(=O)NS(C)(=O)=O)n2)c(C)c1C1C2=C(CC(C)(C)CC2=O)OC2=C1C(=O)CC(C)(C)C2 [Example 40, 6-[4-Methoxy-2-methyl-3-(3,3,6,6-tetramethyl-1,8-dioxo-2,3,4,5,6,7,8,9-octahydro-1H-xanthen-9-yl)phenyl]-4-methyl-N-(methylsulfonyl)pyridine-2-carboxamide] | 38 | 
CC(C)(C)N.COc1ccc(-c2ccc(C)c(C(=O)NS(C)(=O)=O)n2)c(C)c1C1C2=C(CC(C)(C)CC2=O)OC2=C1C(=O)CC(C)(C)C2 [Example 41, 6-[4-Methoxy-2-methyl-3-(3,3,6,6-tetramethyl-1,8-dioxo-2,3,4,5,6,7,8,9-octahydro-1H-xanthen-9-yl)phenyl]-3-methyl-N-(methylsulfonyl)pyridine-2-carboxamide 2-methylpropan-2-amine salt] | 44 | 
CC(C)(C)N.COc1ccc(-c2cc(C)cc(C(=O)NS(C)(=O)=O)n2)c(C)c1C1C2=C(CC(C)(C)CC2=O)OC2=C1C(=O)CC(C)(C)C2 [Example 42, 6-[4-Methoxy-2-methyl-3-(3,3,6,6-tetramethyl-1,8-dioxo-2,3,4,5,6,7,8,9-octahydro-1H-xanthen-9-yl)phenyl]-4-methyl-N-(methylsulfonyl)pyridine-2-carboxamide 2-methylpropan-2-amine salt] | 44 | 
COc1ccc(-c2cc(C)c(C)c(C(=O)O)n2)c(C)c1C1C2=C(CC(C)(C)CC2=O)OC2=C1C(=O)CC(C)(C)C2 [Example 43, 6-[4-Methoxy-2-methyl-3-(3,3,6,6-tetramethyl-1,8-dioxo-2,3,4,5,6,7,8,9-octahydro-1H-xanthen-9-yl)phenyl]-3,4-dimethylpyridine-2-carboxylic acid] | 60 | 
COc1ccc(-c2cc(C)c(C)c(C(=O)NS(C)(=O)=O)n2)c(C)c1C1C2=C(CC(C)(C)CC2=O)OC2=C1C(=O)CC(C)(C)C2 [Example 44, 6-[4-Methoxy-2-methyl-3-(3,3,6,6-tetramethyl-1,8-dioxo-2,3,4,5,6,7,8,9-octahydro-1H-xanthen-9-yl)phenyl]-3,4-dimethyl-N-(methylsulfonyl)pyridine-2-carboxamide] | 44 | 
CCc1ccc(-c2ccc(OC)c(C3C4=C(CC(C)(C)CC4=O)OC4=C3C(=O)CC(C)(C)C4)c2)nc1C(=O)O [Example 45, 3-Ethyl-6-[4-methoxy-3-(3,3,6,6-tetramethyl-1,8-dioxo-2,3,4,5,6,7,8,9-octahydro-1H-xanthen-9-yl)phenyl]pyridine-2-carboxylic acid] | 42 | 
CCc1ccc(-c2ccc(OC)c(C3C4=C(CC(C)(C)CC4=O)OC4=C3C(=O)CC(C)(C)C4)c2)nc1C(=O)NS(C)(=O)=O [Example 46, 3-Ethyl-6-[4-methoxy-3-(3,3,6,6-tetramethyl-1,8-dioxo-2,3,4,5,6,7,8,9-octahydro-1H-xanthen-9-yl)phenyl]-N-(methylsulfonyl)pyridine-2-carboxamide] | 47 | 
COc1ccc(-c2cc3c(c(C(=O)O)n2)CCCC3)c(C)c1C1C2=C(CC(C)(C)CC2=O)OC2=C1C(=O)CC(C)(C)C2 [Example 47, 3-[4-Methoxy-2-methyl-3-(3,3,6,6-tetramethyl-1,8-dioxo-2,3,4,5,6,7,8,9-octahydro-1H-xanthen-9-yl)phenyl]-5,6,7,8-tetrahydroisoquinoline-1-carboxylic acid] | 56 | 
COc1ccc(-c2ccc(N)c(C(=O)O)n2)c(C)c1C1C2=C(CC(C)(C)CC2=O)OC2=C1C(=O)CC(C)(C)C2 [Example 48, 3-Amino-6-[4-methoxy-2-methyl-3-(3,3,6,6-tetramethyl-1,8-dioxo-2,3,4,5,6,7,8,9-octahydro-1H-xanthen-9-yl)phenyl]pyridine-2-carboxylic acid] | 62 | 
COc1ccc(-c2ccc(N)c(C(=O)NS(C)(=O)=O)n2)c(C)c1C1C2=C(CC(C)(C)CC2=O)OC2=C1C(=O)CC(C)(C)C2 [Example 49, 3-Amino-6-[4-methoxy-2-methyl-3-(3,3,6,6-tetramethyl-1,8-dioxo-2,3,4,5,6,7,8,9-octahydro-1H-xanthen-9-yl)phenyl]-N-(methylsulfonyl)pyridine-2-carboxamide] | 34 | 
COc1ccc(-c2ccc(N)c(C(=O)O)n2)cc1C1C2=C(CC(C)(C)CC2=O)OC2=C1C(=O)CC(C)(C)C2 [Example 51, 3-Amino-6-[4-methoxy-3-(3,3,6,6-tetramethyl-1,8-dioxo-2,3,4,5,6,7,8,9-octahydro-1H-xanthen-9-yl)phenyl]pyridine-2-carboxylic acid] | 39 | 
COc1ccc(-c2ccc(N)c(C(=O)NS(C)(=O)=O)n2)cc1C1C2=C(CC(C)(C)CC2=O)OC2=C1C(=O)CC(C)(C)C2 [Example 52, 3-Amino-6-[4-methoxy-3-(3,3,6,6-tetramethyl-1,8-dioxo-2,3,4,5,6,7,8,9-octahydro-1H-xanthen-9-yl)phenyl]-N-(methylsulfonyl)pyridine-2-carboxamide] | 44 | 
CNc1ccc(-c2ccc(OC)c(C3C4=C(CC(C)(C)CC4=O)OC4=C3C(=O)CC(C)(C)C4)c2C)nc1C(=O)O [Example 53, 6-[4-Methoxy-2-methyl-3-(3,3,6,6-tetramethyl-1,8-dioxo-2,3,4,5,6,7,8,9-octahydro-1H-xanthen-9-yl)phenyl]-3-(methylamino)pyridine-2-carboxylic acid] | 64 | 
CNc1ccc(-c2ccc(OC)c(C3C4=C(CC(C)(C)CC4=O)OC4=C3C(=O)CC(C)(C)C4)c2C)nc1C(=O)NS(C)(=O)=O [Example 54, 6-[4-Methoxy-2-methyl-3-(3,3,6,6-tetramethyl-1,8-dioxo-2,3,4,5,6,7,8,9-octahydro-1H-xanthen-9-yl)phenyl]-3-(methylamino)-N-(methylsulfonyl)pyridine-2-carboxamide] | 49 | 
COc1ccc(-c2ccnc(C(N)=O)n2)c(C)c1C1C2=C(CC(C)(C)CC2=O)OC2=C1C(=O)CC(C)(C)C2 [Example 75, 4-[4-Methoxy-2-methyl-3-(3,3,6,6-tetramethyl-1,8-dioxo-2,3,4,5,6,7,8,9-octahydro-1H-xanthen-9-yl)phenyl]pyrimidine-2-carboxylic acid amide] |  | 35
COc1ccc(-c2ccnc(CO)n2)c(C)c1C1C2=C(CC(C)(C)CC2=O)OC2=C1C(=O)CC(C)(C)C2 [Example 76, 9-{3-[2-(Hydroxymethyl)pyrimidin-4-yl]-6-methoxy-2-methylphenyl}-3,3,6,6-tetramethyl-3,4,5,6,7,9-hexahydro-1H-xanthene-1,8(2H)-dione] | 33 | 
